These results are taken from patent US12595269B2, “Morpholine-like monoamine releasers” (Solvonis Therapeutics Ireland Holdings Limited, priority 2022, dated 2026).

This data set is described as follows: Apparent permeability (Papp AB) in MDCKII cells. In kind it is in vitro ADME, Canine. The note with it: dog, MDCK; pH 7.4, apical to basolateral, 60 min. How it is done:
Methods and Procedure: This study was conducted in compliance with previously described procedures to assure data integrity and adherence to GLP regulations. The experiments described herein were designed to evaluate the apparent permeability (Papp) of test compounds at pH 7.4. Additionally, the MDCKII-MDR1 cell line (Madin-Darby Canine Kidney clone II cell line heterologously expressing the human P-glycoprotein transporter) and mock cell line MDCKII were used to determine whether a compound acted as a P-gp substrate, in the absence and in the presence of the potent P-gp inhibitor. Test control items (digoxin, metoprolol, and atenolol) and control P-gp inhibitor (GF120918) stock solution were prepared in DMSO. Bidirectional assays (Apical to Basolateral [AB] and Basolateral to Apical [BA]) were run, in both the absence and presence of P-gp inhibitor GF120918 in MDCKII-MDR1 and mock cell line MDCKII, using as transport buffer HBSSH at a pH of 7.4 (n=3).
Compounds were tested at a single concentration (i.e. at 3 or 10 μM) at one time point (i.e. 60 min). Alternative concentrations or time-points may also be investigated. As reference compounds, digoxin (P-gp substrate), atenolol (low permeable compound) and metoprolol (high permeable compound) were included at a single concentration (e.g., 10 or 25 μM) and at single time point (e.g., 60 min). Digoxin transport was evaluated in two directions (apical-to-basolateral [AB] and basolateral-to-apical [BA]) in the absence and presence of GF120918 or in mock cells, MDCKII (n=3). Atenolol and metoprolol were only tested in the AB direction in absence of GF120918 or in mock cells, MDCKII (n=3). The integrity of the cell monolayer was evaluated after the permeability experiment using the paracellular permeability marker Lucifer yellow (LY) in the apical to basolateral direction in each well.
MDCKII or MDCKII-MDRI cells cultivated using DMEM (high glucose, GlutaMAX™ supplemented with pyruvate, 10% FBS HI and Pen/Strep) and seeded onto microporous PET (Polyethylene Terephthalate) membranes in HTS 96-Multiwell Insert plates at density of ˜175,000-245,000 cells/cm^2 (25000-35000 cells/well; 50 μL/well) in DMEM medium and incubated for 3-4 days at 37° C.-5% CO2. Medium was changed a day before the experiment.
Stock solutions of test items were prepared in DMSO at a concentration of 5 or 10 mM and stored at −20° C. until use. The potent P-gp inhibitor, GF120918 (stock solution 10 mM) and the reference controls digoxin, atenolol, metoprolol (stock solutions 3 or 10 mM) were prepared in DMSO and stored at −20° C. until use.
Donor working solutions of test items and reference controls will be prepared at a concentration of 10 or 25 μM, diluting the stock solutions in HBSSH. Receiver working solutions contained transport buffer only. […]
MDCKII and MDCKII-MDR1 cells were preincubated (37° C., 15 to 30 minutes) in receiver working solutions containing transport buffer on apical (A) and basolateral (B) sides. Following pre-incubation, test items and control items (digoxin) transport were measured in two directions (apical to basolateral [AB]) and basolateral to apical [BA]), and these directions were performed in triplicate sets of wells, in both the absence and presence of […] GF120918 or mock MDCKII cells. […] Transport of permeability reference controls, atenolol and metoprolol, were measured in one direction (apical to basolateral [AB]) (n=3). […]
As for `CNC(C)Cc1ccc2c(c1)OCO2` (stereo not shown) [MDMA, reference compound], the Papp A→B at 60 min is 14 ×10⁻⁶ cm/s.

For `Clc1ccc([C@]23CN[C@H](CO2)C3)cc1Cl` (single isomer, unassigned) [516A], the Papp A→B at 60 min stood at 15.8 ×10⁻⁶ cm/s.

Take `Clc1ccc([C@@]23CN[C@@H](CO2)C3)cc1Cl` (single isomer, unassigned) [518A]: the Papp A→B at 60 min turned out to be 17.3 ×10⁻⁶ cm/s.

Turning to `Clc1ccc(C23CNC(CO2)C3)cc1Cl` (stereo not shown) [522A, 1-(3,4-dichlorophenyl)-2-oxa-5-azabicyclo[2.2.1]heptane], the Papp A→B at 60 min was determined as 9.45 ×10⁻⁶ cm/s.

The term Papp A→B denotes the apparent permeability from the apical to the basolateral side of a cell layer.
